From patent US9895353B2, “Use of L-tryptophan for the treatment of parasomnias” (Zzeemag Inc., priority 2013, dated 2018)

Experiments:
subjects with parasomnia = test: Retrospective study of subjects with parasomnia (follow-up questionnaire and phone interview); type: in vivo, human
Experimental: A retrospective study was performed to evaluate the effects of L-tryoptophan on subjects with parasomnia and to look for sleep architectural differences in children before and after treatment.
Confidential charts were selected of boys and girls between the ages of 3 and 18 years with a clinical diagnosis of Parasomnias, and including behaviours of sleep walking, sleep talking, nightmares or night-terrors.
The 165 subjects that were included in the retrospective study of confidential charts were prescribed treatment with L-Tryptophan or Clonazepam, or no treatment. The exclusion criteria were children under the age 3 years or over the age 18 years and those undergoing treatment for Parasomnia at the time of the sleep study.
The diagnosis of parasomnia was made by a sleep physician and based on the clinical history together with confirmation from the polysomnographic sleep study findings.
An overnight polysomnographic sleep study and questionnaire data were collected during this study for each subject. Each of the subjects at the sleep clinic responded to a battery of questionnaires consisting of: Pediatric Daytime Sleepiness Scale (PDSS), THAT alertness scale, SNAP assessment for ADHD symptoms, Centre for Epidemiologic Studies in depression scale modified for children (CES-DC), and SCARED anxiety scale.
A follow-up questionnaire was formulated to assess for their symptoms following treatment with Tryptophan to compare values before and after treatment. A follow-up phone interview was conducted to assess the frequency of Parasomnias during and after treatment. The follow-up questionnaire included: daytime sleepiness, level of attention and concentration, ability to wake up in the morning, number of hours of sleep at night and incidence of temper tantrums.
Ninety nine (60%) of the 165 children were prescribed L-tryptophan to manage their parasomnia. The remaining were either prescribed Clonazepam (n=32) or were not prescribed anything. The latter reflected parental preference and/or clinical judgement.

[1] = tested on: subjects presenting with parasomnia; test: Case studies of subjects treated with L-tryptophan for parasomnia; type: in vivo, human
Experimental: A detailed analysis of a number of subjects presenting with parasomnia who were treated with L-tryptophan was performed. A selection of case reports of subjects treated with L-tryptophan are summarized below. Remarkably, L-tryptophan is useful for the treatment of subjects presenting with a variety of abnormal behavioral or physiological events occurring in association with sleep, specific sleep stages, or sleep-wake transition.

mild insomnia = conditions: lower doses (<4 g), without altering sleep architecture; cited from earlier work
[2] = children treated with L-tryptophan
[3] = out of 69 patients who took L-Tryptophan
[4] = patients aged 3-18 years who took L-Tryptophan (n=69)
[5] = patients who took L-Tryptophan (n=69)
[6] = subjects administered L-tryptophan
[7] = Case A, current dose of 1.75 mg
[8] = Case B, 3 g one hour before bedtime

For N[C@@H](Cc1c[nH]c2ccccc12)C(=O)O [L-tryptophan, (2S)-2-amino-3-(1H-indol-3-yl)propanoic acid], the “frequency of parasomnic events” value (subjects with parasomnia; [2]) was “reduced”, the “number of arousals in sleep” value (subjects with parasomnia; [2]) was “decreasing” and the “side effects observed, number of patients” value (subjects with parasomnia; [3]) was 7. The “side effects observed, percent of patients” value (subjects with parasomnia; [3]) was 10%, the “improvement in parasomnia symptoms (B or R), number of patients” value (subjects with parasomnia; [4]) was 55 and the “improvement in parasomnia symptoms (B or R), percent of patients” value (subjects with parasomnia; [4]) was 80%. For the same molecule, the “no change in parasomnia symptoms (U), number of patients” value (subjects with parasomnia; [5]) was 10, the “no change in parasomnia symptoms (U), percent of patients” value (subjects with parasomnia; [5]) was 14% and the “worsening of parasomnia symptoms (W), number of patients” value (subjects with parasomnia; [5]) was 4. The “worsening of parasomnia symptoms (W), percent of patients” value (subjects with parasomnia; [5]) was 6%, the “alertness during the day” value (subjects with parasomnia; [6]) was “increased” and the “attention during the day” value (subjects with parasomnia; [6]) was “better”. The “number of temper tantrums” value (subjects with parasomnia; [6]) was “reduced”, the daytime fatigue [1, 7] was “less problematic” and the nightly sleep talking [1, 7] was “ceased”. The “patient's sleep” value [1, 7] was “improved”, the “time to fall asleep after retiring to bed” value [1, 7] was 15 to 20 min and the “daytime somnolence or fatigue” value [1, 8] was “no observation of daytime somnolence or fatigue”. The night terrors [1, 8] was “no night terrors”, the “nightly bedwetting / enuretic episodes” value [1, 8] was “still continues to experience nightly enuretic episodes” and the tolerability ([1]; Case B, six capsules (3 g) one hour before bedtime) was “able to tolerate”. The daytime endurance ([1]; Case C, dosage of 2 mg) was “improved significantly”, the sleepwalking ([1]; Case C, dosage of 2 mg) was “No observed parasomnic behaviours of sleepwalking” and the “subject's sleep” value ([1]; Case C, dosage of 2 mg) was “marked improvement”. The bruxism ([1]; Case D, 2 g daily) was “declined significantly”, the sleepwalking ([1]; Case D, 2 g daily) was “no episodes of sleep walking” and the frequency of bedwetting ([1]; Case E, 4.5 g daily) was “declined substantially”. For the same molecule, the “sleepwalking and sleep talking” value ([1]; Case E, 4.5 g daily) was “no longer walked or talked in their sleep”, the sleep overall ([1]; Case F, dose of 2.25 mg daily) was “improved noticeably” and the tolerability ([1]; Case F, dose of 2.25 mg daily) was “tolerated L-tryptophan well”. For the same molecule, the “decrease in sleep latency” value (mild insomnia) was “about half”.
